Measurements as given in patent EP4620949A1, “ACKR3 MODULATORS FOR CARDIOVASCULAR OR ANTIPLATELET THERAPY” (Eberhard Karls Universität Tübingen (Medizinische Fakultät), priority 2024, dated 2025).
“And” between values parts separate entries of the source, which are not always exact repeats. Identical values can stand only once.

Tested on: platelets
Experiment: Light transmission platelet aggregation experiments
Type: cell-based
Conditions: preincubation with 100 µM ACKR3 agonist, activation with 2.5 µM ADP; compared to the control
Method: Platelet aggregation studies. To further evaluate the compounds inhibitory potential of platelet aggregation, aggregation experiments were conducted.
Aggregation experiments. For the light transmission aggregation experiments, citrate anticoagulated blood from healthy donors was used. To obtain platelet-rich plasma, whole blood was centrifuged at 210 × g for 20 min at room temperature. 1 × 10^8 platelets were preincubated with 100 µM ACKR3 agonist for 15 min at 37°C. Subsequently, platelets were activated with 2.5 µM ADP and aggregation was analyzed for 5 min at 1,000 rpm and 37°C using a light transmission aggregometer (Aggregometer 490-X; Chrono-Log Corp., Havertown, Pennsylvania, United States). Maximum platelet aggregation and the area under the curve were quantified using Aggrolink8 software (Chrono-Log Corp., Havertown, Pennsylvania, United States).

Compound	platelet aggregation (in words)
CCN(CCCNC(=O)c1ccc(-c2ccccc2)s1)Cc1ccccc1 [Compound 23, N-(3-(benzyl(ethyl)amino)propyl)-5-phenylthiophene-2-carboxamide]	highest potency for platelet aggregation inhibition
COc1cc(C(=O)N(CCC2CCCN2C)C/C(C)=C/c2ccccc2F)cc(OC)c1OC (centres unmarked) [VUF11207, reference compound]	reduction of platelet aggregation

Tested on: HEK293 cells
Experiment: RealTime-Glo MT cell viability assay
Type: cell-based
Conditions: concentrations of 1 µM and below, up to 72 h
Method: Cell viability studies. […].
Cell Viability Assay. RealTime-Glo™ MT Cell Viability Assay (Promega Corporation, Madison, WI, USA) was performed using THP1 cells and HEK293 cells as indicated in the manufacturer's manual to measure a compound's cytotoxicity on cells. In brief, in a white solid-bottom 96-well plate cells (5x10^3/well) were seeded and incubated with the respective compounds diluted in DMEM (Gibco, Carlsbad, CA, USA). After cell seeding viability reagent is added. Subsequently, cells were incubated with the compound and viability reagent containing medium at 37 °C, 5% CO2 for 72 h. The luminescence signal was determined after 1, 24, 48, and 72 hours on a GloMax®-Multi Detection System plate reader (Promega Corporation, Madison, Wl, USA).

Compound	cell toxicity / tolerability (in words)
CCN(CCCNC(=O)c1ccc(-c2ccccc2)s1)Cc1ccccc1 [Compound 23, N-(3-(benzyl(ethyl)amino)propyl)-5-phenylthiophene-2-carboxamide]	tolerated well

Tested on: platelets
Experiment: Flow cytometry assay of platelet degranulation (P-Selectin surface expression in PRP)
Type: cell-based, human
Conditions: PRP pre-incubated with compound (100 µM), then CRP-XL (1 µg/mL); % ±SEM normalized to CRP-XL-treated vehicle PRP
Method: Platelet Degranulation Studies of Derivatives. Concurrent with the β-Arrestin recruitment potency optimization, the compounds were also tested and developed according to their functional activity. To determine the ability of a compound to modulate platelets, P-Selectin surface expression was measured. P-Selectin is a surface protein involved in cell adhesion mechanisms and can be found on activated platelets. After induction of platelet aggregation in platelet-rich plasma (PRP), treatment with the respective compound should therefore lead to a significant reduction in P-Selectin expression. […]. […]. Similarly, platelet degranulation potency was highly sensitive toward "linker"-changes (Structure C, Table 1). A distinct trend could not be registered. […]. Flow Cytometry Assay. The inhibition of platelet degranulation was determined via flow cytometry experiments. Platelets were treated with collagen-related peptide (CRP-XL, CambCol Laboratories, Cambridge, UK) and the platelets' activation state was determined (Geue, S.; Aurbach, K.; Manke, M.-C.; Manukjan, G.; Münzer, P.; Stegner, D.; Brähler, C.; Walker-Allgaier, B.; Märklin, M.; Borst, C. E.; Quintanilla-Fend, L.; Rath, D.; Geisler, T.; Salih, H. R.; Seizer, P.; Lang, F.; Nieswandt, B.; Gawaz, M.; Schulze, H.; Pleines, I.; Borst, O. Pivotal role of pdk1 in megakaryocyte cytoskeletal dynamics and polarization during platelet biogenesis. Blood 2019, 134, 1847-1858; and Malehmir, M.; Pfister, D.; Gallage, S.; Szydlowska, M.; Inverso, D.; Kotsiliti, E.; Leone, V.; Peiseler, M.; Surewaard, B. G. J.; Rath, D.; Ali, A.; Wolf, M. J.; Drescher, H.; Healy, M. E.; Dauch, D.; Kroy, D.; Krenkel, O.; Kohlhepp, M.; Engleitner, T.; Olkus, A.; Sijmonsma, T.; Volz, J.; Deppermann, C.; Stegner, D.; Helbling, P.; Nombela-Arrieta, C.; Rafiei, A.; Hinterleitner, M.; Rail, M.; Baku, F.; Borst, O.; Wilson, C. L.; Leslie, J.; O'Connor, T.; Wes-ton, C. J.; Chauhan, A.; Adams, D. H.; Sheriff, L.; Teijeiro, A.; Prinz, M.; Bogeska, R.; An-stee, N.; Bongers, M. N.; Notohamiprodjo, M.; Geisler, T.; Withers, D. J.; Ware, J.; Mann, D. A.; Augustin, H. G.; Vegiopoulos, A.; Milsom, M. D.; Rose, A. J.; Lalor, P. F.; Llovet, J. M.; Pinyol, R.; Tacke, F.; Rad, R.; Matter, M.; Djouder, N.; Kubes, P.; Knolle, P. A.; Unger, K.; Zender, L.; Nieswandt, B.; Gawaz, M.; Weber, A.; Heikenwalder, M. Platelet gpibα is a mediator and potential interventional target for nash and subsequent liver cancer. Nat. Med. 2019, 25, 641-655). Briefly, PRP was isolated from peripheral human blood collected in citrate-phosphate-dextrose solution with adenine (CPDA) and diluted with phosphate-buffered saline (PBS) (Sigma Aldrich Co., Ltd., St. Luis, Missouri, USA) supplemented with CaCl2 and MgCl2. PRP (106 platelets /sample) was preincubated with the respective compound (100 µM) for 15 min. Samples were treated with 1 µg/ml CRP-XL (CambCol Laboratories, Cambridge, UK) for 30 min at room temperature in the presence of the respective fluorochrome-conjugated antibody against P-Selectin (CD62P-FITC; Beckman Coulter, Brea, CA, USA). Subsequently, samples were fixed in 0.5% paraformaldehyde and analyzed on a FACS-Calibur flow cytometer (FACS-Caliber flow cytometer, Becton-Dickinson, East Rutherford, NJ, USA). Mean fluorescence intensity (MFI) was used as a quantitative measurement of platelet surface expression.

Compound	P-Selectin expression reduction
O=C(NCCCN(CCCO)Cc1ccccc1)c1ccc(-c2ccccc2)s1 [Compound 28, N-(3-(benzyl(3-hydroxypropyl)amino)propyl)-5-phenylthiophene-2-carboxamide]	85±4%
CC(C)(C)OC(=O)NCCCNC(=O)c1ccc(-c2ccccc2)s1 [Compound 33, tert-butyl (3-(5-phenylthiophene-2-carboxamido)propyl)carbamate]	0±4%
CC(C)(C)OC(=O)N1CCN(CCNC(=O)c2cc3ccccc3s2)CC1 [Compound 49, tert-butyl 4-(2-(benzo[b]thiophene-2-carboxamido)ethyl)piperazine-1-carboxylate]	70%
CCCN(CCCNC(=O)c1ccc(-c2ccccc2)s1)Cc1ccccc1 [Compound 26, N-(3-(benzyl(propyl)amino)propyl)-5-phenylthiophene-2-carboxamide]	76±7%
O=C(c1ccc(-c2ccccc2)s1)N1CCCN(Cc2ccccc2)CC1 [Compound 40, (4-benzyl-1,4-diazepan-1-yl)(5-phenylthiophen-2-yl)methanone]	76%
O=C(NCC1CCCN(Cc2ccccc2)C1)c1ccc(-c2ccccc2)s1 (centres unmarked) [Compound 39, N-((1-benzylpiperidin-3-yl)methyl)-5-phenylthiophene-2-carboxamide]	42±9%
COc1cc(C(=O)N(CCC2CCCN2C)C/C(C)=C/c2ccccc2F)cc(OC)c1OC (centres unmarked) [VUF11207, reference compound]	65% and 65±6%

Tested on: not listed separately
Experiment: Kinetic solubility assay
Type: physicochemical
Conditions: PBS buffer with 1% DMSO, 4 °C, aqueous buffer, kinetic from dmso stock; 1% DMSO, 99% PBS buffer (pH 7.4)
Method: Solubility Assay. A 100 mL flask with phosphate-buffered saline was prepared from NaCl, KCI, Na2HPO4, KH2PO4, and distilled water. The buffer was adjusted to pH 7.4 with HCl. Afterwards, 10mM stock solutions of compounds in DMSO were prepared. 10 µL compound stock solution was added to 990 µL PBS in Eppendorf tubes. As a reference, 10 µL compound stock solution was added to 990 µL HPLC-grade MeOH in Eppendorf tubes. All tubes were centrifuged (16000 relative centrifugal force, 4 °C, 20 min). Subsequently, 600 µL supernatant was extracted carefully and filled into HPLC vials. […] Compounds solubility was calculated by AUC of compound in PBS divided by AUC of reference solution multiplied by concentration of the compound in solution.

Compound	solubility
CCN(CCCNC(=O)c1ccc(-c2ccccc2)s1)Cc1ccccc1 [Compound 23, N-(3-(benzyl(ethyl)amino)propyl)-5-phenylthiophene-2-carboxamide]	30 µg/mL

Same assay, conditions: PBS buffer with 1% DMSO, 4 °C, aqueous buffer, kinetic from dmso stock; 1% DMSO, 99% PBS buffer (pH 7.4); average of three independent experiments ± SEM

Compound	solubility
CCN(CCCNC(=O)c1ccc(-c2ccccc2)s1)Cc1ccccc1 [Compound 23, N-(3-(benzyl(ethyl)amino)propyl)-5-phenylthiophene-2-carboxamide]	75 ± 1 µM

Same assay, conditions: mixture 1 vol.% DMSO and 99 vol.% PBS buffer

Compound	Solubility (in words)
CCCN(CCCNC(=O)c1ccc(-c2ccccc2)s1)Cc1ccccc1 [Compound 26, N-(3-(benzyl(propyl)amino)propyl)-5-phenylthiophene-2-carboxamide]	good solubility

Target: T1, human ACKR3 (Homo sapiens, UniProt P25106)
T1 construct: expressed in transfected cells; host or cells: HEK293T
T1 sequence (P25106 whole entry): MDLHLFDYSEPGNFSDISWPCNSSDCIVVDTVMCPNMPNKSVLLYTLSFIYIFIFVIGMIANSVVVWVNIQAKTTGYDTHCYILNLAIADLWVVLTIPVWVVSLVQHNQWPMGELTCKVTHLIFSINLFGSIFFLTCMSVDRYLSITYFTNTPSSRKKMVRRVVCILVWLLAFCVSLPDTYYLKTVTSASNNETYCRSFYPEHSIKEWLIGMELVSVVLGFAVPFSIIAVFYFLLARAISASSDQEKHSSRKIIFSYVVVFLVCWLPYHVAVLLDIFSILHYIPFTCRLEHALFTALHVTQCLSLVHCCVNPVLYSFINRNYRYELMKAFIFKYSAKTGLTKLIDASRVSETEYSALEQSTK
T1 sequence (P49407 whole entry partner): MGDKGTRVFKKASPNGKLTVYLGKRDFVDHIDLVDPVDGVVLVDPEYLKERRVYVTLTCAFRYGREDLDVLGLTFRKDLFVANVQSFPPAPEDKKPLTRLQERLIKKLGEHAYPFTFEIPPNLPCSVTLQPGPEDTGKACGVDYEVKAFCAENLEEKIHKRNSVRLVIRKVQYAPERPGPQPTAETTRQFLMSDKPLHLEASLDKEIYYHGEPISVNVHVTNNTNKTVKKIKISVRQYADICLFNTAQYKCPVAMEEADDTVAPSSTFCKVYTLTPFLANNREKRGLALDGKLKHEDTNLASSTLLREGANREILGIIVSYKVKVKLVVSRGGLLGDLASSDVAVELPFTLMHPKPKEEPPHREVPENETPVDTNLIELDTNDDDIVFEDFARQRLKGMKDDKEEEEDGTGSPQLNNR
Experiment: ACKR3 β-Arrestin recruitment assay (NanoLuc complementation, NanoBiT) in HEK293T cells
Type: cell-based
Conditions: ACKR3; HEK293T cells; average value of three independent experiments
Method: ACKR3 β-Arrestin Recruitment Assay. […] T.; Encell, L. P.; Wood, K. V. Nanoluc complementation reporter optimized for accurate measurement of protein interactions in cells. […] B.; Reynders, N.; Vanderplasschen, A.; Ollert, M.; Bouvier, M.; Szpakowska, M.; Chevigné, A. Proadrenomedullin n-terminal 20 peptides (pamps) are agonists of the chemokine scavenger receptor ACKR3/CXCR7. […] The prepared cells were then treated with compounds at concentrations ranging from 0.3 nM to 100 µM. Induction of β-Arrestin recruitment to receptors was evaluated by measuring bioluminescence with a Mithras LB940 luminometer (Berthold Technologies).
All curves were fitted to data points generated from the mean of at least three independent experiments. Results with values of p < 0.05 were considered statistically significant.

Compound	EC50	β-Arrestin recruitment EC50
O=C(NCCCN(CCCO)Cc1ccccc1)c1ccc(-c2ccccc2)s1 [Compound 28, N-(3-(benzyl(3-hydroxypropyl)amino)propyl)-5-phenylthiophene-2-carboxamide]	413 nM	
CC(C)(C)OC(=O)NCCCNC(=O)c1ccc(-c2ccccc2)s1 [Compound 33, tert-butyl (3-(5-phenylthiophene-2-carboxamido)propyl)carbamate]		no activity
CC(C)(C)OC(=O)N1CCN(CCNC(=O)c2cc3ccccc3s2)CC1 [Compound 49, tert-butyl 4-(2-(benzo[b]thiophene-2-carboxamido)ethyl)piperazine-1-carboxylate]	4550 nM	
O=C(c1ccc(-c2ccccc2)s1)N1CCCN(Cc2ccccc2)CC1 [Compound 40, (4-benzyl-1,4-diazepan-1-yl)(5-phenylthiophen-2-yl)methanone]	1200 nM	
CCN(CCCNC(=O)c1ccc(-c2ccccc2)s1)Cc1ccccc1 [Compound 23, N-(3-(benzyl(ethyl)amino)propyl)-5-phenylthiophene-2-carboxamide]	111 nM	
O=C(NCC1CCCN(Cc2ccccc2)C1)c1ccc(-c2ccccc2)s1 (centres unmarked) [Compound 39, N-((1-benzylpiperidin-3-yl)methyl)-5-phenylthiophene-2-carboxamide]	1220 nM	
COc1cc(C(=O)N(CCC2CCCN2C)C/C(C)=C/c2ccccc2F)cc(OC)c1OC (centres unmarked) [VUF11207, reference compound]	43.6 nM	

Same assay, conditions: efficacy of CXCL12 at 300 nM set as 100%; average of three independent experiments

Compound	Efficacy (Emax) vs CXCL12
CC(C)(C)OC(=O)N1CCN(CCNC(=O)c2cc3ccccc3s2)CC1 [Compound 49, tert-butyl 4-(2-(benzo[b]thiophene-2-carboxamido)ethyl)piperazine-1-carboxylate]	25%
O=C(c1ccc(-c2ccccc2)s1)N1CCCN(Cc2ccccc2)CC1 [Compound 40, (4-benzyl-1,4-diazepan-1-yl)(5-phenylthiophen-2-yl)methanone]	32%
COc1cc(C(=O)N(CCC2CCCN2C)C/C(C)=C/c2ccccc2F)cc(OC)c1OC (centres unmarked) [VUF11207, reference compound]	95%
